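In this assay, cells in 96-well plates receive the compound at five concentrations for 48 hours. Endpoints are linearly interpolated between the surrounding concentrations. Here, GI50 denotes the concentration required for 50% inhibition of growth. At the TGI there is no net growth.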
Assays:
Test in all cases: inhibition of tumour cell growth, NCI panel, 48 h
KM12 colon = tested on: KM12 colon
SK-MEL-2 melanoma = tested on: SK-MEL-2 melanoma
NCI-H460 lung = tested on: NCI-H460 lung
HCT-15 colon = tested on: HCT-15 colon
SF-539 CNS = tested on: SF-539 CNS
OVCAR-4 ovarian = tested on: OVCAR-4 ovarian
TK-10 renal = tested on: TK-10 renal
UACC-257 melanoma = tested on: UACC-257 melanoma
EKVX NSCLC = tested on: EKVX NSCLC
CAKI-1 renal = tested on: CAKI-1 renal
SN12C renal = tested on: SN12C renal
NCI-H23 lung = tested on: NCI-H23 lung
NCI-H522 lung = tested on: NCI-H522 lung
HOP-92 NSCLC = tested on: HOP-92 NSCLC
SNB-19 CNS = tested on: SNB-19 CNS
HCC-2998 colon = tested on: HCC-2998 colon
NCI-H226 lung = tested on: NCI-H226 lung
OVCAR-5 ovarian = tested on: OVCAR-5 ovarian
U251 CNS = tested on: U251 CNS
K-562 leukemia = tested on: K-562 leukemia
MCF7 breast = tested on: MCF7 breast
CCRF-CEM leukemia = tested on: CCRF-CEM leukemia
SK-OV-3 ovarian = tested on: SK-OV-3 ovarian
A498 renal = tested on: A498 renal
SNB-75 CNS = tested on: SNB-75 CNS
MALME-3M melanoma = tested on: MALME-3M melanoma
ACHN renal = tested on: ACHN renal
MDA-MB-435 = tested on: MDA-MB-435
SK-MEL-28 melanoma = tested on: SK-MEL-28 melanoma
BT-549 breast = tested on: BT-549 breast
HT29 colon = tested on: HT29 colon
MDA-MB-231 breast = tested on: MDA-MB-231 breast
HS 578T breast = tested on: HS 578T breast
DU-145 prostate = tested on: DU-145 prostate
HOP-62 NSCLC = tested on: HOP-62 NSCLC
HCT-116 colon = tested on: HCT-116 colon
M14 melanoma = tested on: M14 melanoma
NCI/ADR-RES ovarian = tested on: NCI/ADR-RES ovarian
SR leukemia = tested on: SR leukemia
COLO 205 colon = tested on: COLO 205 colon
UACC-62 melanoma = tested on: UACC-62 melanoma
SW-620 colon = tested on: SW-620 colon
SF-268 CNS = tested on: SF-268 CNS
LOX IMVI melanoma = tested on: LOX IMVI melanoma
RXF 393 renal = tested on: RXF 393 renal
OVCAR-3 ovarian = tested on: OVCAR-3 ovarian
PC-3 prostate = tested on: PC-3 prostate
786-0 renal = tested on: 786-0 renal
OVCAR-8 ovarian = tested on: OVCAR-8 ovarian
RPMI-8226 leukemia = tested on: RPMI-8226 leukemia
T-47D breast = tested on: T-47D breast
IGROV1 ovarian = tested on: IGROV1 ovarian
SK-MEL-5 melanoma = tested on: SK-MEL-5 melanoma
A549 NSCLC = tested on: A549 NSCLC
UO-31 renal = tested on: UO-31 renal
SF-295 CNS = tested on: SF-295 CNS
MOLT-4 leukemia = tested on: MOLT-4 leukemia
HL-60(TB) leukemia = tested on: HL-60(TB) leukemia

SMILES: C1CCC(C(CC2CCCCN2)C2CCCCC2)CC1 (stereo unspecified)
- GI50 (KM12 colon): 1870 nM
- TGI (KM12 colon): 3420 nM
- GI50 (SK-MEL-2 melanoma): 2030 nM
- TGI (SK-MEL-2 melanoma): 3690 nM
- GI50 (NCI-H460 lung): 1840 nM
- TGI (NCI-H460 lung): 3620 nM
- GI50 (HCT-15 colon): 1810 nM
- TGI (HCT-15 colon): 3480 nM
- GI50 (SF-539 CNS): 1820 nM
- TGI (SF-539 CNS): 3390 nM
- GI50 (OVCAR-4 ovarian): 1650 nM
- TGI (OVCAR-4 ovarian): 3040 nM
- GI50 (TK-10 renal): 1630 nM
- TGI (TK-10 renal): 3090 nM
- GI50 (UACC-257 melanoma): 1710 nM
- TGI (UACC-257 melanoma): 3530 nM
- GI50 (EKVX NSCLC): 1620 nM
- TGI (EKVX NSCLC): 3280 nM
- GI50 (CAKI-1 renal): 1550 nM
- TGI (CAKI-1 renal): 3060 nM
- GI50 (SN12C renal): 1510 nM
- TGI (SN12C renal): 2970 nM
- GI50 (NCI-H23 lung): 1720 nM
- TGI (NCI-H23 lung): 3490 nM
- GI50 (NCI-H522 lung): 1600 nM
- TGI (NCI-H522 lung): 3160 nM
- GI50 (HOP-92 NSCLC): 990 nM
- TGI (HOP-92 NSCLC): 2360 nM
- GI50 (SNB-19 CNS): 1780 nM
- TGI (SNB-19 CNS): 3510 nM
- GI50 (HCC-2998 colon): 1410 nM
- TGI (HCC-2998 colon): 2960 nM
- GI50 (NCI-H226 lung): 1640 nM
- TGI (NCI-H226 lung): 3190 nM
- GI50 (OVCAR-5 ovarian): 1700 nM
- TGI (OVCAR-5 ovarian): 3220 nM
- GI50 (U251 CNS): 1590 nM
- TGI (U251 CNS): 3020 nM
- GI50 (K-562 leukemia): 2450 nM
- TGI (K-562 leukemia): 5110 nM
- GI50 (MCF7 breast): 1650 nM
- TGI (MCF7 breast): 3140 nM
- GI50 (CCRF-CEM leukemia): 1970 nM
- TGI (CCRF-CEM leukemia): 4820 nM
- GI50 (SK-OV-3 ovarian): 1540 nM
- TGI (SK-OV-3 ovarian): 2880 nM
- GI50 (A498 renal): 1360 nM
- TGI (A498 renal): 2670 nM
- GI50 (SNB-75 CNS): 1770 nM
- TGI (SNB-75 CNS): 3430 nM
- GI50 (MALME-3M melanoma): 1920 nM
- TGI (MALME-3M melanoma): 3690 nM
- GI50 (ACHN renal): 1830 nM
- TGI (ACHN renal): 3320 nM
- GI50 (MDA-MB-435): 1590 nM
- TGI (MDA-MB-435): 3070 nM
- GI50 (SK-MEL-28 melanoma): 1880 nM
- TGI (SK-MEL-28 melanoma): 3300 nM
- GI50 (BT-549 breast): 1930 nM
- TGI (BT-549 breast): 3510 nM
- GI50 (HT29 colon): 1550 nM
- TGI (HT29 colon): 3060 nM
- GI50 (MDA-MB-231 breast): 1250 nM
- TGI (MDA-MB-231 breast): 2600 nM
- GI50 (HS 578T breast): 2150 nM
- TGI (HS 578T breast): 5550 nM
- GI50 (DU-145 prostate): 1800 nM
- TGI (DU-145 prostate): 3210 nM
- GI50 (HOP-62 NSCLC): 1350 nM
- TGI (HOP-62 NSCLC): 2640 nM
- GI50 (HCT-116 colon): 1680 nM
- TGI (HCT-116 colon): 3140 nM
- GI50 (M14 melanoma): 1760 nM
- TGI (M14 melanoma): 3340 nM
- GI50 (NCI/ADR-RES ovarian): 1880 nM
- TGI (NCI/ADR-RES ovarian): 3810 nM
- GI50 (SR leukemia): 2740 nM
- TGI (SR leukemia): 6670 nM
- GI50 (COLO 205 colon): 1420 nM
- TGI (COLO 205 colon): 2790 nM
- GI50 (UACC-62 melanoma): 1530 nM
- TGI (UACC-62 melanoma): 2960 nM
- GI50 (SW-620 colon): 1770 nM
- TGI (SW-620 colon): 3400 nM
- GI50 (SF-268 CNS): 1770 nM
- TGI (SF-268 CNS): 3230 nM
- GI50 (LOX IMVI melanoma): 1570 nM
- TGI (LOX IMVI melanoma): 3210 nM
- GI50 (RXF 393 renal): 1420 nM
- TGI (RXF 393 renal): 2780 nM
- GI50 (OVCAR-3 ovarian): 1820 nM
- TGI (OVCAR-3 ovarian): 3260 nM
- GI50 (PC-3 prostate): 1500 nM
- TGI (PC-3 prostate): 2950 nM
- GI50 (786-0 renal): 1640 nM
- TGI (786-0 renal): 3160 nM
- GI50 (OVCAR-8 ovarian): 1770 nM
- TGI (OVCAR-8 ovarian): 3530 nM
- GI50 (RPMI-8226 leukemia): 2170 nM
- TGI (RPMI-8226 leukemia): 5560 nM
- GI50 (T-47D breast): 1440 nM
- TGI (T-47D breast): 2940 nM
- GI50 (IGROV1 ovarian): 1870 nM
- TGI (IGROV1 ovarian): 3450 nM
- GI50 (SK-MEL-5 melanoma): 1550 nM
- TGI (SK-MEL-5 melanoma): 2910 nM
- GI50 (A549 NSCLC): 1720 nM
- TGI (A549 NSCLC): 3320 nM
- GI50 (UO-31 renal): 1330 nM
- TGI (UO-31 renal): 2650 nM
- GI50 (SF-295 CNS): 1730 nM
- TGI (SF-295 CNS): 3210 nM
- GI50 (MOLT-4 leukemia): 2450 nM
- TGI (MOLT-4 leukemia): 4980 nM
- GI50 (HL-60(TB) leukemia): 2370 nM
- TGI (HL-60(TB) leukemia): 4380 nM
